The test system of one test is MOLT-4 cells. In words: CTG (CellTiter-Glo) cell viability assay, MOLT-4. It counts as cell-based. To be noted: Homo sapiens, 3 day incubation, read-out: CTG Cell Viability Assay - MOLT-4 3 day: Average external-IC50. In a few lines:
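MOLT-4 and Caki-2 cells at 10,000 cells/well exposed 3 days at 37° C., 5% CO2 to 9 doses (1:3, top 10 μM, 0.2% DMSO). Viability by CellTiter-Glo luminescence; IC50 from three-parameter logistic fit.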

In another test the test system is Caki-2 cells. In words: CTG (CellTiter-Glo) cell viability assay, Caki-2. Format: cell-based. The following applies: Homo sapiens, 72 h, 3 day incubation, read-out: CTG Chempartner - Caki-2 3 day: Average external-IC50. As for the experimental part: Compound-mediated viability effect on MOLT-4 and Caki-2 was quantitatively determined using the CellTiter-Glo® Luminescent Cell Viability Assay kit from Promega (Catalog number G7570) following manufacturer's recommended procedures. Briefly, MOLT-4 and Caki-2 cells were seeded into 384 well plates (Grenier Bio-One, Catalog number 781080) with a density of 10,000 cells per well. Compounds were then added to the assay plate with final top concentration of 10 μM and 1:3 dilution series with total of 9 doses. The final DMSO concentration is normalized to 0.2%. The assay plates were incubated at 37° C., for 3 days under 5% CO2. Then the assay plate was equilibrated at room temperature for 10 minutes. To determine cell viability, 30 uL CellTiter Glo reagent was added to each well and the assay plate was centrifuged at 1000 rpm for 30 second, incubated at room temperature for 10 min, and analyzed by detecting the luminescence using a multimode plate reader (EnVision 2105, PerkinElmer). The data was then analyzed by software Prism 7.0 from GraphPad and the dose response curves are fit using a three-parameter logistic equation to calculate IC50.
The letter codes for MOLT-4 IC50 include: A (<0.1 μM); B (0.1-1.0 μM); C (>1.0-3.0 μM); and D (>3.0 μM). The letter codes for Caki-2 IC50 include: A (<0.1 μM); B (0.1-1.0 μM); C (>1.0-10.0 μM); and D (>10.0 μM).

Like-named read-outs stand apart in the source and are kept apart here.

With `Cc1ncsc1-c1ccc([C@H](C)NC(=O)[C@@H]2C[C@@H](OC(=O)CCP(=O)(O)O)CN2C(=O)[C@@H](NC(=O)CCCS(=O)(=O)NC(=O)c2nc(N3CCc4cccc(C(=O)Nc5nc6ccccc6s5)c4C3)ccc2-c2cnn(CC3CCCCC3)c2C)C(C)(C)C)cc1` [I-411], the IC50 with MOLT-4 cells (72 h) is 0.1 to 1 µM; in the test with Caki-2 cells, greater than 10 µM.
Turning to `Cc1ncsc1-c1ccc(CNC(=O)[C@@H]2C[C@@H](O)CN2C(=O)[C@@H](NC(=O)C2(F)CC2)C(C)(C)C)c(OCCCCCCN(C)C(=O)c2nc(N3CCc4cccc(C(=O)Nc5nc6ccccc6s5)c4C3)ccc2-c2cnn(CC3CCCCC3)c2C)c1` [I-168], the IC50 was 0.1 to 1 µM with MOLT-4 cells (MOLT-4, 72 h) and greater than 10 µM in the test with Caki-2 cells.
With `Cc1c(-c2ccc(N3CCc4cccc(C(=O)Nc5nc6cccnc6s5)c4C3)nc2C(=O)NS(=O)(=O)CCCCCC(=O)N[C@H](C(=O)N2C[C@H](O)C[C@H]2C(=O)N[C@@H](C)c2ccc(C#N)cc2O)C(C)(C)C)cnn1CC1CCCCC1` (single isomer, unassigned) [I-485], the IC50 with MOLT-4 cells (MOLT-4, 72 h) was greater than 3 µM; in the test on Caki-2 cells it was greater than 10 µM.
In the case of `Cc1ccc(NC(=O)c2cccc3c2CN(c2ccc(-c4cnn(CC5CCCCC5)c4C)c(C(=O)NS(=O)(=O)CCCCCC(=O)N[C@H](C(=O)N4C[C@H](O)C[C@H]4C(=O)N[C@@H](C)c4ccc(-c5scnc5C)cc4)C(C)(C)C)n2)CC3)nc1` [I-458], the IC50 in the test on MOLT-4 cells (MOLT-4, 72 h) is greater than 3 µM; with Caki-2 cells, greater than 10 µM.
In the same order, the values of `Cc1cc(N(C)c2ccc(-c3cnn(CC45CC6CC(CC(C6)C4)C5)c3C)c(C(=O)NS(=O)(=O)CCN3CC(C(=O)N[C@H](C(=O)N4C[C@H](O)C[C@H]4C(=O)N[C@@H](C)c4ccc(-c5scnc5C)cc4)C(C)(C)C)C3)n2)nnc1Nc1nc2ccccc2s1` [I-432] are 1 to 3 µM and greater than 10 µM.
On to `Cc1cc(N2CC(C(=O)N[C@H](C(=O)N3C[C@H](O)C[C@H]3C(=O)NCc3ccc(-c4scnc4C)cc3)C(C)(C)C)C2)ccc1S(=O)(=O)NC(=O)c1nc(N(C)c2cc(C)c(Nc3nc4ccccc4s3)nn2)ccc1-c1cnn(CC23CC4CC(CC(C4)C2)C3)c1C` [I-435], for which the IC50 is less than 0.1 µM with MOLT-4 cells (MOLT-4, 72 h) and greater than 10 µM in the test on Caki-2 cells.
As for `C#Cc1ccc(CNC(=O)[C@@H]2C[C@@H](O)CN2C(=O)[C@@H](NC(=O)CCCCCS(=O)(=O)NC(=O)c2nc(N(C)c3cc(C)c(Nc4nc5ccccc5s4)nn3)ccc2-c2cnn(CC(C)(C)C)c2C)C(C)(C)C)cc1` [I-472], the IC50 is 0.1 to 1 µM with MOLT-4 cells (MOLT-4, 72 h) and greater than 10 µM in the test with Caki-2 cells.
For the molecule `Cc1csc(NC(=O)c2cccc3c2CN(c2ccc(-c4cnn(CC5CCCCC5)c4C)c(C(=O)NS(=O)(=O)CCCCCC(=O)N[C@H](C(=O)N4C[C@H](O)C[C@H]4C(=O)N[C@@H](C)c4ccc(-c5scnc5C)cc4)C(C)(C)C)n2)CC3)n1` [I-462], the IC50 with MOLT-4 cells (MOLT-4, 72 h) is 0.1 to 1 µM; with Caki-2 cells it was greater than 10 µM.
For `C#Cc1ccc(CNC(=O)[C@@H]2C[C@@H](O)CN2C(=O)[C@@H](NC(=O)CCCS(=O)(=O)NC(=O)c2nc(N3CCc4cccc(C(=O)Nc5nc6cccnc6s5)c4C3)ccc2-c2cnn(CC(C)C)c2C)C(C)(C)C)cc1` [I-412], the IC50 in the test on MOLT-4 cells (MOLT-4, 72 h) was greater than 3 µM; in the test with Caki-2 cells, greater than 10 µM.
For the molecule `C#Cc1ccc(CNC(=O)[C@@H]2C[C@@H](O)CN2C(=O)[C@@H](NC(=O)CCNCCS(=O)(=O)NC(=O)c2nc(N(C)c3cc(C)c(Nc4nc5ccccc5s4)nn3)ccc2-c2cnn(CC34CC5CC(CC(C5)C3)C4)c2C)C(C)(C)C)c(OCCO)c1` [I-431], the IC50 in the test with MOLT-4 cells (MOLT-4, 72 h) is 0.1 to 1 µM; with Caki-2 cells, greater than 10 µM.
In the same order, the values of `Cc1cc(N(C)c2ccc(-c3cnn(CC4CCCC4)c3C)c(C(=O)NS(=O)(=O)c3ccc(N4CCC(C(=O)N[C@H](C(=O)N5C[C@H](O)C[C@H]5C(=O)N[C@@H](C)c5ccc(-c6scnc6C)cc5)C(C)(C)C)CC4)cc3)n2)nnc1Nc1nc2ccccc2s1` [I-441] are 1 to 3 µM and greater than 10 µM.

(Values after patent US20250197387A1, “BCL-XL DEGRADERS AND USES THEREOF” (Kymera Therapeutics, Inc., priority 2021, published 2025).)
